Test results reported in patent US10829481B2, “Benzimidazole derivatives as modulators of ROR-gamma” (Vitae Pharmaceuticals, LLC, priority 2016, dated 2020).

Legend:
[1] = molecular target: full-length RORγt in Jurkat cells (Homo sapiens (Human), UniProt P51449); assay: RORγt 5×RORE Assay in Jurkat Cells (Assay 2); assay type: cell-based; settings: 5×RORE Nanoluc luciferase reporter
[2] = molecular target: recombinant RORγ Ligand Binding Domain (LBD) protein (Homo sapiens (Human), UniProt P51449); assay: Radio-Ligand RORγ Binding Assay (Assay 1); settings: competition with 25-hydroxy [26,27-3H]-cholesterol, SPA
recombinant RORγ Ligand Binding Domain (LBD) protein, sequence (P51449 269-508): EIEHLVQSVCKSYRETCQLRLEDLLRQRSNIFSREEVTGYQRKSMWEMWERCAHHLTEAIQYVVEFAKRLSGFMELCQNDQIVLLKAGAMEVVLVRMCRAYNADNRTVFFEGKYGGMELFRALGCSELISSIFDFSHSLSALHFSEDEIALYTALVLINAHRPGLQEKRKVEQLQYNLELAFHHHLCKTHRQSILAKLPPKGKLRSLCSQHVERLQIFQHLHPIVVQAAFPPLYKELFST
Procedure, shortened: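 His-GST-fused RORγ ligand-binding domain (24 nM solution) competed between compounds and tritiated 25-hydroxycholesterol (8.6 nM solution), read by SPA after brief rt incubations in pH 7.4 HEPES/glycerol/detergent buffer. Four-parameter curve fitting gave IC50 at inflection, converted to Ki using radioligand concentration and KD.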

full-length RORγt in Jurkat cells, sequence (P51449 other isoform, or with tags, fused parts or gaps): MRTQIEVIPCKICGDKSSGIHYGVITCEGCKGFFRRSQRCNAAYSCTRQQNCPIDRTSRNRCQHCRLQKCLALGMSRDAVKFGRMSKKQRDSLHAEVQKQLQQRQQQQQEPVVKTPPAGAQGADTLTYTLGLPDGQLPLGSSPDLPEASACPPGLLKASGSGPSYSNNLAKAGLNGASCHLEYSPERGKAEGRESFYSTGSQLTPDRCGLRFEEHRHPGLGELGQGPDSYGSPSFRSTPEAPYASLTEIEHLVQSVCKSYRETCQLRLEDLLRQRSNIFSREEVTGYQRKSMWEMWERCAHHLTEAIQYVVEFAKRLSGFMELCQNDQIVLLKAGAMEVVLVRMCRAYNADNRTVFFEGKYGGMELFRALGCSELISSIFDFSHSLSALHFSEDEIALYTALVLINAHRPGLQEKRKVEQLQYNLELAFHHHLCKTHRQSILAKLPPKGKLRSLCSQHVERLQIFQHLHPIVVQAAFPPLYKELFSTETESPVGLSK

SMILES | IC50 [1] [µM] | Ki [2] [µM]
CCS(=O)(=O)c1ccc(CNC(=O)c2ccc3c(c2)nc(C2CCC2)n3Cc2cccc3c2OC(F)(F)O3)cc1 [I-36, 2-cyclobutyl-1-((2,2-difluorobenzo[d][1,3]dioxol-4-yl)methyl)-N-(4-(ethylsulfonyl)benzyl)-1H-benzo[d]imidazole-5-carboxamide] | < 0.1 | < 0.1
CCS(=O)(=O)c1ccc(CNC(=O)c2ccc3c(c2)nc(C(F)F)n3Cc2cccc3c2OC(F)(F)O3)cc1 [I-37, 1-((2,2-difluorobenzo[d][1,3]dioxol-4-yl)methyl)-2-(difluoromethyl)-N-(4-(ethylsulfonyl)benzyl)-1H-benzo[d]imidazole-5-carboxamide] | < 0.1 | < 0.1
CCS(=O)(=O)c1ccc(CNC(=O)c2ccc3c(c2)nc(C(C)(F)F)n3Cc2cccc3c2OC(F)(F)O3)cc1 [I-38, 1-((2,2-difluorobenzo[d][1,3]dioxol-4-yl)methyl)-2-(1,1-difluoroethyl)-N-(4-(ethylsulfonyl)benzyl)-1H-benzo[d]imidazole-5-carboxamide] | < 0.1 | < 0.1
CCS(=O)(=O)c1ccc(CNC(=O)c2ccc3c(c2)nc([C@H]2CCCO2)n3Cc2cccc3c2OC(F)(F)O3)cc1 [I-39.1, (R)-1-((2,2-difluorobenzo[d][1,3]dioxol-4-yl)methyl)-N-(4-(ethylsulfonyl)benzyl)-2-(tetrahydrofuran-2-yl)-1H-benzo[d]imidazole-5-carboxamide] | < 0.1 | < 0.1
CCS(=O)(=O)c1ccc(CNC(=O)c2ccc3c(c2)nc([C@@H]2CCCO2)n3Cc2cccc3c2OC(F)(F)O3)cc1 [I-39.2, (S)-1-((2,2-difluorobenzo[d][1,3]dioxol-4-yl)methyl)-N-(4-(ethylsulfonyl)benzyl)-2-(tetrahydrofuran-2-yl)-1H-benzo[d]imidazole-5-carboxamide] | < 0.1 | < 0.1
CS(=O)(=O)c1ccc(CNC(=O)c2ccc3c(c2)nc(C2(F)CC2)n3Cc2cccc3c2OC(F)(F)O3)cc1 [I-40, 1-((2,2-difluorobenzo[d][1,3]dioxol-4-yl)methyl)-2-(1-fluorocyclopropyl)-N-(4-(methylsulfonyl)benzyl)-1H-benzo[d]imidazole-5-carboxamide] | < 0.1 | < 0.1
O=C(NCc1ccc(S(=O)(=O)CCO)cc1)c1ccc2c(c1)nc(C1(F)CC1)n2Cc1cccc2c1OC(F)(F)O2 [I-41, 1-((2,2-difluorobenzo[d][1,3]dioxol-4-yl)methyl)-2-(1-fluorocyclopropyl)-N-(4-((2-hydroxyethyl)sulfonyl)benzyl)-1H-benzo[d]imidazole-5-carboxamide] | < 0.1 | < 0.1
CNS(=O)(=O)c1ccc(CNC(=O)c2ccc3c(c2)nc(C2(F)CC2)n3Cc2cccc3c2OC(F)(F)O3)cc1 [I-42, 1-((2,2-difluorobenzo[d][1,3]dioxol-4-yl)methyl)-2-(1-fluorocyclopropyl)-N-(4-(N-methylsulfamoyl)benzyl)-1H-benzo[d]imidazole-5-carboxamide] | < 0.1 | < 0.1
CCS(=O)(=O)c1ccc(CNC(=O)c2ccc3c(c2)nc(C2(F)CCC2)n3Cc2cccc3c2OC(F)(F)O3)cc1 [I-43, 1-((2,2-difluorobenzo[d][1,3]dioxol-4-yl)methyl)-N-(4-(ethylsulfonyl)benzyl)-2-(1-fluorocyclobutyl)-1H-benzo[d]imidazole-5-carboxamide] | < 0.1 | < 0.1
O=C(NCc1ccc(S(=O)(=O)CCO)cc1)c1ccc2c(c1)nc(C(F)(F)F)n2Cc1cccc2c1OC(F)(F)O2 [I-45, 1-((2,2-difluorobenzo[d][1,3]dioxol-4-yl)methyl)-N-(4-((2-hydroxyethyl)sulfonyl)benzyl)-2-(trifluoromethyl)-1H-benzo[d]imidazole-5-carboxamide] | < 0.1 | < 0.1
CNS(=O)(=O)c1ccc(CNC(=O)c2ccc3c(c2)nc(C(F)(F)F)n3Cc2cccc3c2OC(F)(F)O3)cc1 [I-46, 1-((2,2-difluorobenzo[d][1,3]dioxol-4-yl)methyl)-N-(4-(N-methylsulfamoyl)benzyl)-2-(trifluoromethyl)-1H-benzo[d]imidazole-5-carboxamide] | < 0.1 | < 0.1
O=C(NCc1ccc(S(=O)(=O)CCO)cc1)c1ccc2c(c1)nc(C1CC1)n2Cc1cccc2c1OC(F)(F)O2 [I-47, 2-cyclopropyl-1-((2,2-difluorobenzo[d][1,3]dioxol-4-yl)methyl)-N-(4-((2-hydroxyethyl)sulfonyl)benzyl)-1H-benzo[d]imidazole-5-carboxamide] | < 0.1 | < 0.1
CS(=O)(=O)c1ccc(CNC(=O)c2ccc3c(c2)nc(C(F)(F)F)n3Cc2cccc3c2OC(F)(F)O3)cc1 [I-48, 1-((2,2-difluorobenzo[d][1,3]dioxol-4-yl)methyl)-N-(4-(methylsulfonyl)benzyl)-2-(trifluoromethyl)-1H-benzo[d]imidazole-5-carboxamide] | < 0.1 | < 0.1
CS(=O)(=O)c1ccc(CNC(=O)c2ccc3c(c2)nc(C(F)F)n3Cc2cccc3c2OC(F)(F)O3)cc1 [I-50, 1-((2,2-difluorobenzo[d][1,3]dioxol-4-yl)methyl)-2-(difluoromethyl)-N-(4-(methylsulfonyl)benzyl)-1H-benzo[d]imidazole-5-carboxamide] | < 0.1 | < 0.1
NS(=O)(=O)c1ccc(CNC(=O)c2ccc3c(c2)nc(C(F)(F)F)n3Cc2cccc3c2OC(F)(F)O3)cc1 [I-51, 1-((2,2-difluorobenzo[d][1,3]dioxol-4-yl)methyl)-N-(4-sulfamoylbenzyl)-2-(trifluoromethyl)-1H-benzo[d]imidazole-5-carboxamide] | 0.1 to 1 | < 0.1
CCCS(=O)(=O)c1ccc(CNC(=O)c2ccc3c(c2)nc(C(F)(F)F)n3Cc2cccc3c2OC(F)(F)O3)cc1 [I-52, 1-((2,2-difluorobenzo[d][1,3]dioxol-4-yl)methyl)-N-(4-(propylsulfonyl)benzyl)-2-(trifluoromethyl)-1H-benzo[d]imidazole-5-carboxamide] | < 0.1 | < 0.1
COC(=O)CS(=O)(=O)c1ccc(CNC(=O)c2ccc3c(c2)nc(C(F)(F)F)n3Cc2cccc3c2OC(F)(F)O3)cc1 [I-53, methyl 2-((4-((1-((2,2-difluorobenzo[d][1,3]dioxol-4-yl)methyl)-2-(trifluoromethyl)-1H-benzo[d]imidazole-5-carboxamido)methyl)phenyl)sulfonyl)acetate] | 0.1 to 1 | < 0.1
CCS(=O)(=O)c1ccc(CNC(=O)c2ccc3c(c2)nc(C(C)(C)OC)n3Cc2cccc3c2OC(F)(F)O3)cc1 [I-54, 1-((2,2-difluorobenzo[d][1,3]dioxol-4-yl)methyl)-N-(4-(ethylsulfonyl)benzyl)-2-(2-methoxypropan-2-yl)-1H-benzo[d]imidazole-5-carboxamide] | < 0.1 | < 0.1
CCS(=O)(=O)c1ccc(CNC(=O)c2ccc3c(c2)nc(OC)n3Cc2cccc3c2OC(F)(F)O3)cc1 [I-55, 1-((2,2-difluorobenzo[d][1,3]dioxol-4-yl)methyl)-N-(4-(ethylsulfonyl)benzyl)-2-methoxy-1H-benzo[d]imidazole-5-carboxamide] | 0.1 to 1 | < 0.1
CCS(=O)(=O)c1ccc(CNC(=O)c2ccc3c(c2)nc([C@@H]2C[C@H]2C#N)n3Cc2cccc3c2OC(F)(F)O3)cc1 [I-57, 2-((1R,2R)-2-cyanocyclopropyl)-1-((2,2-difluorobenzo[d][1,3]dioxol-4-yl)methyl)-N-(4-(ethylsulfonyl)benzyl)-1H-benzo[d]imidazole-5-carboxamide] | < 0.1 | < 0.1
CCS(=O)(=O)c1ccc(CNC(=O)c2ccc3c(c2)nc([C@@H]2C[C@H]2C(=O)OC)n3Cc2cccc3c2OC(F)(F)O3)cc1 [I-58, methyl(1R,2R)-2-(1-((2,2-difluorobenzo[d][1,3]dioxol-4-yl)methyl)-5-((4-(ethylsulfonyl)benzyl)carbamoyl)-1H-benzo[d]imidazol-2-yl)cyclopropane-1-carboxylate] | 0.1 to 1 | < 0.1
CCS(=O)(=O)c1ccc([C@H](COC)NC(=O)c2ccc3c(c2)nc(C(F)(F)F)n3Cc2cccc3c2OC(F)(F)O3)cc1 [I-59, (R)-1-((2,2-difluorobenzo[d][1,3]dioxol-4-yl)methyl)-N-(1-(4-(ethylsulfonyl)phenyl)-2-methoxyethyl)-2-(trifluoromethyl)-1H-benzo[d]imidazole-5-carboxamide] | < 0.1 | < 0.1
CCS(=O)(=O)c1ccc([C@H](COC)NC(=O)c2ccc3c(c2)nc(C2CC2)n3Cc2cccc3c2OC(F)(F)O3)cc1 [I-60, (R)-2-cyclopropyl-1-((2,2-difluorobenzo[d][1,3]dioxol-4-yl)methyl)-N-(1-(4-(ethylsulfonyl)phenyl)-2-methoxyethyl)-1H-benzo[d]imidazole-5-carboxamide] | < 0.1 | < 0.1
CCS(=O)(=O)c1ccc([C@H](COC)NC(=O)c2ccc3c(c2)nc(C2(F)CC2)n3Cc2cccc3c2OC(F)(F)O3)cc1 [I-61, (R)-1-((2,2-difluorobenzo[d][1,3]dioxol-4-yl)methyl)-N-(1-(4-(ethylsulfonyl)phenyl)-2-methoxyethyl)-2-(1-fluorocyclopropyl)-1H-benzo[d]imidazole-5-carboxamide] | < 0.1 | < 0.1
CCS(=O)(=O)c1ccc([C@H](COC)NC(=O)c2ccc3c(c2)nc(C(F)(F)F)n3Cc2cccc3c2OC(F)(F)O3)nc1 [I-62, (R)-1-((2,2-difluorobenzo[d][1,3]dioxol-4-yl)methyl)-N-(1-(5-(ethylsulfonyl)pyridin-2-yl)-2-methoxyethyl)-2-(trifluoromethyl)-1H-benzo[d]imidazole-5-carboxamide] | < 0.1 | < 0.1
